Consider 15 molecules from US20250163104A1, “MACROCYCLIC IMMUNOMODULATORS” (priority 2021, published 2025).

Molecules are shown by their SMILES. pIC50: −log10 of the molar value. Where a SMILES comes first, the peptide text is derived from it. Bridges are numbered along the chain shown (N, C = ends). [ ]: non-standard residue; d: D form. The star is where a group is joined. Bip = N[C@@H](Cc1ccc(-c2ccccc2)cc1)C(=O)O; Ala(cPent) = N[C@@H](CC1CCCC1)C(=O)O; Gly(octyl) = CCCCCCCC[C@H](N)C(=O)O; Ala(cPr) = N[C@@H](CC1CC1)C(=O)O; 4Pal = N[C@@H](Cc1ccncc1)C(=O)O; Cha = N[C@@H](CC1CCCCC1)C(=O)O; Cit = NC(=O)NCCC[C@H](N)C(=O)O; Ahp(2) = CCCCC[C@H](N)C(=O)O; Chg = N[C@H](C(=O)O)C1CCCCC1; Carboxymethyl = O=C(O)C*; Nle = CCCC[C@H](N)C(=O)O; Orn = NCCC[C@H](N)C(=O)O; Dab = NCC[C@H](N)C(=O)O; Abu = CC[C@H](N)C(=O)O; Dap = NC[C@H](N)C(=O)O

A word on the pIC50: it is −log10 of the IC50, conventionally taken in molar units.

T1 sequence (Q15116 25-288): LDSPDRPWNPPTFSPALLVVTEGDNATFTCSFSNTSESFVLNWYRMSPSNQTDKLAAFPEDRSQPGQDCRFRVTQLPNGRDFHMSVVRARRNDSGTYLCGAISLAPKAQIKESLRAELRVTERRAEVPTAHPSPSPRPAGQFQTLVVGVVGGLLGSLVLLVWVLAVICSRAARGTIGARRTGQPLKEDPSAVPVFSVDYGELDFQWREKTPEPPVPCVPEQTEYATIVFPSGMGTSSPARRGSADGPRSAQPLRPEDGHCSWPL

This test concerns the target T1, human PD-1 / PD-L1-Ig binding on Jurkat cell line over-expressing human PD-1 (Jurkat-PD-1) (Homo sapiens, UniProt Q15116).
T1 construct: expressed in transfected cells; host or cells: Jurkat
Nature of the test: Jurkat-PD-1 Cell Binding High-Content Screening Assay (CBA). It counts as cell-based. Conditions: Jurkat-PD-1 cells, PE-labeled PD-L1-Ig 20 nM final; read-out: Jurkat HPD1_PDL1 IC50. In outline: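 Jurkat-hPD-1 cells in DMEM with 10% fetal calf serum receive test compound and are held at 37° C for 2 h. PE-labeled PD-L1-Ig is added at 20 nM final and left for 1 hour. Cells are then fixed and Hoechst-stained, and binding is measured by imaging.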
In the case of `CCCC[C@@H]1NC(=O)[C@H](CC(N)=O)NC(=O)[C@@H](CC(C)C)NC(=O)[C@H](CCCN)NC(=O)[C@H](C(C)C)NC(=O)[C@H](Cc2ccc(-c3ccccc3)cc2)NC(=O)[C@H](CC(C)C)NC(=O)[C@H](Cc2c[nH]c3ccccc23)NC(=O)[C@H](CC(=O)O)NC(=O)[C@H](Cc2ccncc2)NC(=O)[C@H](Cc2ccc(OCC(=O)O)cc2)NC(=O)CSC[C@@H](C(=O)NCC(N)=O)NC(=O)[C@H](CO)NC(=O)[C@H](C(C)C)NC1=O` [Compound 1343] ({CH2CO}-Y(Carboxymethyl)[4Pal]DWL[Bip]V[Orn][dL]N[Nle]VSCG-NH2; thioether N-14), the pIC50 was 7.52.
As for `CC(C)C[C@H]1NC(=O)[C@H](CCCN)NC(=O)[C@H](CCCNC(N)=O)NC(=O)[C@H](Cc2ccc(-c3ccccc3)cc2)NC(=O)[C@H](C(C)C)NC(=O)[C@H](Cc2c[nH]c3ccccc23)NC(=O)[C@H](CC(=O)O)NC(=O)[C@H](Cc2ccc(OCC(=O)O)cc2)NC(=O)[C@H](CN)NC(=O)CSC[C@@H](C(=O)N[C@@H](C)C(N)=O)NC(=O)[C@H]([C@@H](C)O)NC(=O)[C@H](C(C)C)NC(=O)[C@H](Cc2ccccc2)NC(=O)[C@H](CCN)NC1=O` [Compound 1344] ({CH2CO}-[Dap]Y(Carboxymethyl)DWV[Bip][Cit][Orn][dL][Dab]FVTCA-NH2; thioether N-14), the pIC50 is 7.51.
Then `CC(C)C[C@H]1NC(=O)[C@H](CCCN)NC(=O)[C@H](CCCNC(N)=O)NC(=O)[C@H](Cc2ccc(-c3ccccc3)cc2)NC(=O)[C@H](C(C)C)NC(=O)[C@H](Cc2c[nH]c3ccccc23)NC(=O)[C@H](CC(=O)O)NC(=O)[C@H](Cc2ccc(OCC(=O)O)cc2)NC(=O)[C@H](CN)NC(=O)CSC[C@@H](C(=O)N[C@@H](C)C(N)=O)NC(=O)[C@H]([C@@H](C)O)NC(=O)[C@H](C(C)C)NC(=O)[C@H](Cc2ccncc2)NC(=O)[C@H](CCN)NC1=O` [Compound 1345] ({CH2CO}-[Dap]Y(Carboxymethyl)DWV[Bip][Cit][Orn][dL][Dab][4Pal]VTCA-NH2; thioether N-14), with 6.63.
Then `CC(C)C[C@H]1NC(=O)[C@H](CCCN)NC(=O)[C@H](CCCNC(N)=O)NC(=O)[C@H](Cc2ccc(-c3ccccc3)cc2)NC(=O)[C@H](C(C)C)NC(=O)[C@H](Cc2c[nH]c3ccccc23)NC(=O)[C@H](CC(=O)O)NC(=O)[C@H](Cc2ccc(OCC(=O)O)cc2)NC(=O)[C@H](CN)NC(=O)CSC[C@@H](C(=O)N[C@@H](C)C(N)=O)NC(=O)[C@H]([C@@H](C)O)NC(=O)[C@H](C(C)C)NC(=O)[C@H](Cc2ccc(O)cc2)NC(=O)[C@H](CCN)NC1=O` [Compound 1346] ({CH2CO}-[Dap]Y(Carboxymethyl)DWV[Bip][Cit][Orn][dL][Dab]YVTCA-NH2; thioether N-14), with 7.02.
`CCCCC[C@@H]1NC(=O)[C@H](CCN)NC(=O)[C@@H](CC(C)C)NC(=O)[C@H](CCCN)NC(=O)[C@H](CCCNC(N)=O)NC(=O)[C@H](Cc2ccc(-c3ccccc3)cc2)NC(=O)[C@H](C(C)C)NC(=O)[C@H](Cc2c[nH]c3ccccc23)NC(=O)[C@H](CC(=O)O)NC(=O)[C@H](Cc2ccc(OCC(=O)O)cc2)NC(=O)[C@H](CN)NC(=O)CSC[C@@H](C(=O)N[C@@H](C)C(N)=O)NC(=O)[C@H]([C@@H](C)O)NC(=O)[C@H](C(C)C)NC1=O` [Compound 1347] ({CH2CO}-[Dap]Y(Carboxymethyl)DWV[Bip][Cit][Orn][dL][Dab][Ahp(2)]VTCA-NH2; thioether N-14): the pIC50 was 7.58.
Under `CC(C)C[C@H]1NC(=O)[C@H](CCCN)NC(=O)[C@H](CCCNC(N)=O)NC(=O)[C@H](Cc2ccc(-c3ccccc3)cc2)NC(=O)[C@H](C(C)C)NC(=O)[C@H](Cc2c[nH]c3ccccc23)NC(=O)[C@H](CC(=O)O)NC(=O)[C@H](Cc2ccc(OCC(=O)O)cc2)NC(=O)[C@H](CN)NC(=O)CSC[C@@H](C(=O)N[C@@H](C)C(N)=O)NC(=O)[C@H]([C@@H](C)O)NC(=O)[C@H](C(C)C)NC(=O)[C@H](CCC2CCCCC2)NC(=O)[C@H](CCN)NC1=O` [Compound 1348] stands 7.40; under `CC(C)C[C@H]1NC(=O)[C@H](CCCN)NC(=O)[C@H](CCCNC(N)=O)NC(=O)[C@H](Cc2ccc(-c3ccccc3)cc2)NC(=O)[C@H](C(C)C)NC(=O)[C@H](Cc2c[nH]c3ccccc23)NC(=O)[C@H](CC(=O)O)NC(=O)[C@H](Cc2ccc(OCC(=O)O)cc2)NC(=O)[C@H](CN)NC(=O)CSC[C@@H](C(=O)N[C@@H](C)C(N)=O)NC(=O)[C@H]([C@@H](C)O)NC(=O)[C@H](C(C)C)NC(=O)[C@H](Cc2ccccn2)NC(=O)[C@H](CCN)NC1=O` [Compound 1349], 7.26.
Take `CC(C)C[C@H]1NC(=O)[C@H](CCCN)NC(=O)[C@H](CCCNC(N)=O)NC(=O)[C@H](Cc2ccc(-c3ccccc3)cc2)NC(=O)[C@H](C(C)C)NC(=O)[C@H](Cc2c[nH]c3ccccc23)NC(=O)[C@H](CC(=O)O)NC(=O)[C@H](Cc2ccc(OCC(=O)O)cc2)NC(=O)[C@H](CN)NC(=O)CSC[C@@H](C(=O)N[C@@H](C)C(N)=O)NC(=O)[C@H]([C@@H](C)O)NC(=O)[C@H](C(C)C)NC(=O)[C@H](Cc2cccnc2)NC(=O)[C@H](CCN)NC1=O` [Compound 1350]: the pIC50 was 6.79.
Consider `COc1ccc(C[C@@H]2NC(=O)[C@H](CCN)NC(=O)[C@@H](CC(C)C)NC(=O)[C@H](CCCN)NC(=O)[C@H](CCCNC(N)=O)NC(=O)[C@H](Cc3ccc(-c4ccccc4)cc3)NC(=O)[C@H](C(C)C)NC(=O)[C@H](Cc3c[nH]c4ccccc34)NC(=O)[C@H](CC(=O)O)NC(=O)[C@H](Cc3ccc(OCC(=O)O)cc3)NC(=O)[C@H](CN)NC(=O)CSC[C@@H](C(=O)N[C@@H](C)C(N)=O)NC(=O)[C@H]([C@@H](C)O)NC(=O)[C@H](C(C)C)NC2=O)cc1` [Compound 1351] ({CH2CO}-[Dap]Y(Carboxymethyl)DWV[Bip][Cit][Orn][dL][Dab]Y(Me)VTCA-NH2; thioether N-14), for which the negative logarithm of the IC50 (pIC50) was 6.92.
`CCCCCCCC[C@@H]1NC(=O)[C@H](CCN)NC(=O)[C@@H](CC(C)C)NC(=O)[C@H](CCCN)NC(=O)[C@H](CCCNC(N)=O)NC(=O)[C@H](Cc2ccc(-c3ccccc3)cc2)NC(=O)[C@H](C(C)C)NC(=O)[C@H](Cc2c[nH]c3ccccc23)NC(=O)[C@H](CC(=O)O)NC(=O)[C@H](Cc2ccc(OCC(=O)O)cc2)NC(=O)[C@H](CN)NC(=O)CSC[C@@H](C(=O)N[C@@H](C)C(N)=O)NC(=O)[C@H]([C@@H](C)O)NC(=O)[C@H](C(C)C)NC1=O` [Compound 1352] ({CH2CO}-[Dap]Y(Carboxymethyl)DWV[Bip][Cit][Orn][dL][Dab][Gly(octyl)]VTCA-NH2; thioether N-14): the pIC50 was 6.96.
Then `CC(C)C[C@H]1NC(=O)[C@H](CCCN)NC(=O)[C@H](CCCNC(N)=O)NC(=O)[C@H](Cc2ccc(-c3ccccc3)cc2)NC(=O)[C@H](CC2CCCC2)NC(=O)[C@H](Cc2c[nH]c3ccccc23)NC(=O)[C@H](CC(=O)O)NC(=O)[C@H](Cc2ccc(OCC(=O)O)cc2)NC(=O)[C@H](CN)NC(=O)CSC[C@@H](C(=O)N[C@@H](C)C(N)=O)NC(=O)[C@H]([C@@H](C)O)NC(=O)[C@H](C(C)C)NC(=O)[C@H](CC2CCCCC2)NC(=O)[C@H](CCN)NC1=O` [Compound 1353] ({CH2CO}-[Dap]Y(Carboxymethyl)DW[Ala(cPent)][Bip][Cit][Orn][dL][Dab][Cha]VTCA-NH2; thioether N-14), with 7.96; and `CC(C)C[C@H]1NC(=O)[C@H](CCCN)NC(=O)[C@H](CCCNC(N)=O)NC(=O)[C@H](Cc2ccc(-c3ccccc3)cc2)NC(=O)[C@H](CC2CC2)NC(=O)[C@H](Cc2c[nH]c3ccccc23)NC(=O)[C@H](CC(=O)O)NC(=O)[C@H](Cc2ccc(OCC(=O)O)cc2)NC(=O)[C@H](CN)NC(=O)CSC[C@@H](C(=O)N[C@@H](C)C(N)=O)NC(=O)[C@H]([C@@H](C)O)NC(=O)[C@H](C(C)C)NC(=O)[C@H](CC2CCCCC2)NC(=O)[C@H](CCN)NC1=O` [Compound 1354] ({CH2CO}-[Dap]Y(Carboxymethyl)DW[Ala(cPr)][Bip][Cit][Orn][dL][Dab][Cha]VTCA-NH2; thioether N-14), with 7.86; and `CCC[C@@H]1NC(=O)[C@H](Cc2c[nH]c3ccccc23)NC(=O)[C@H](CC(=O)O)NC(=O)[C@H](Cc2ccc(OCC(=O)O)cc2)NC(=O)[C@H](CN)NC(=O)CSC[C@@H](C(=O)N[C@@H](C)C(N)=O)NC(=O)[C@H]([C@@H](C)O)NC(=O)[C@H](C(C)C)NC(=O)[C@H](CC2CCCCC2)NC(=O)[C@H](CCN)NC(=O)[C@@H](CC(C)C)NC(=O)[C@H](CCCN)NC(=O)[C@H](CCCNC(N)=O)NC(=O)[C@H](Cc2ccc(-c3ccccc3)cc2)NC1=O` [Compound 1355], with 8.09.
With `CC[C@@H]1NC(=O)[C@H](Cc2c[nH]c3ccccc23)NC(=O)[C@H](CC(=O)O)NC(=O)[C@H](Cc2ccc(OCC(=O)O)cc2)NC(=O)[C@H](CN)NC(=O)CSC[C@@H](C(=O)N[C@@H](C)C(N)=O)NC(=O)[C@H]([C@@H](C)O)NC(=O)[C@H](C(C)C)NC(=O)[C@H](CC2CCCCC2)NC(=O)[C@H](CCN)NC(=O)[C@@H](CC(C)C)NC(=O)[C@H](CCCN)NC(=O)[C@H](CCCNC(N)=O)NC(=O)[C@H](Cc2ccc(-c3ccccc3)cc2)NC1=O` [Compound 1356] ({CH2CO}-[Dap]Y(Carboxymethyl)DW[Abu][Bip][Cit][Orn][dL][Dab][Cha]VTCA-NH2; thioether N-14), the pIC50 was 8.26.
Under `CC(C)C[C@H]1NC(=O)[C@H](CCCN)NC(=O)[C@H](CCCNC(N)=O)NC(=O)[C@H](Cc2ccc(-c3ccccc3)cc2)NC(=O)[C@H](C2CCCCC2)NC(=O)[C@H](Cc2c[nH]c3ccccc23)NC(=O)[C@H](CC(=O)O)NC(=O)[C@H](Cc2ccc(OCC(=O)O)cc2)NC(=O)[C@H](CN)NC(=O)CSC[C@@H](C(=O)N[C@@H](C)C(N)=O)NC(=O)[C@H]([C@@H](C)O)NC(=O)[C@H](C(C)C)NC(=O)[C@H](CC2CCCCC2)NC(=O)[C@H](CCN)NC1=O` [Compound 1357] ({CH2CO}-[Dap]Y(Carboxymethyl)DW[Chg][Bip][Cit][Orn][dL][Dab][Cha]VTCA-NH2; thioether N-14) stands 8.32.
